Results reported in US20150126467A1, “USE OF ALGINATE OLIGOMERS TO ENHANCE THE EFFECTS OF ANTIFUNGAL AGENTS” (AlgiIPharma AS, priority 2011, published 2015).

How the values were obtained:
[1] = tested on: various Aspergillus species; test: Robotic MIC assay, summary over species (Example 4); type: cell-based; details: Aspergillus species tested
Protocol: Aspergillus sp. was grown at 30° C. for 96 h on YM-agar. Spores and aerial mycelium was cut out from the agar, suspended in 1 ml YM-broth and dispersed with glass beads (1 mm) in a mini bead beater for 2 min. Glycerol was added to the suspension to 10% and frozen at −80° C.
Each batch of frozen stock culture was then characterized in separate growth experiments using Mueller-Hinton broth to determine the minimum amount of inoculum giving satisfactory growth after 48 h under the conditions relevant for the MIC assay. This inoculation procedure is used in order to reduce day to day variation in bioassays.
Robotic minimum inhibitory concentration (MIC) assay was performed as follows. OligoG CF-5/20 was dissolved in medium (Mueller-Hinton broth) to 1.25 times of the desired assay concentrations (2, 6 and 10%). […].
Two-fold serial dilutions of antifungal agents were made in medium with different concentrations of OligoG CF-5/20, and the solutions were placed in four parallel wells in Nunc 384-well micro plates (30 μl per well in Nunc 242757 microplates). A group of 8 wells with no addition of antifungal agents for each OligoG CF-5/20 concentration was included on each micro plate as growth reference. Each well in the 384-well assay plates was added 7.5 μl of the MH medium inoculated with frozen stock culture of the relevant strains.
The microplates were placed in plastic bags and incubated without shaking at 34° C. The optical density at 600 nm in the microwells was measured after approximately 24 and 48 hours of incubation. […]

[2] = tested on: C. tropicalis 519468 (urinary); test: Robotic MIC assay, Candida strains (Example 2); type: cell-based; details: 48 h, Mueller-Hinton broth
Protocol: (§1) A robotic MIC Assay was performed as follows. OligoG CF-5/20 were dissolved in medium (Mueller-Hinton broth or M19 broth depending on experiment) to 1.25 times of the desired assay concentrations (2, 6 and 10%). The antifungal agents under test were dissolved in medium without OligoG CF-5/20 and in medium with OligoG CF-5/20 at a concentration of 1.25 times the highest desired assay concentrations. For experiments where the effect of adding different concentrations of Na^+ was investigated, NaCl was dissolved in medium to the desired concentrations (10, 30 and 50 mM).
(§2) Two-fold serial dilutions of antifungal agents were made in medium with different concentrations of OligoG CF-5/20, and the solutions were placed in four parallel wells in Nunc 384-well micro plates (30 μl per well in Nunc 242757 microplates). A group of 8 wells with no addition of antifungal agents for each OligoG CF-5/20 concentration was included on each microplate as growth reference. To each well in the 384-well assay plates was added 7.5 μl of medium inoculated with a frozen stock culture of Candida albicans (strain CCUG 39343).
(§3) The micro plates were placed in plastic bags and incubated without shaking at 34° C. The optical density at 600 nm in the microwells was measured after approximately 13, 18, 24 and 34 hours of incubation, and the relative growth yield in each well was calculated based on the growth in the reference groups.
(§4) The robotic assay described in Example 1 was employed in this Example. Strains were grown in Mueller-Hinton broth (LAB114 from Lab M Limited) and MIC values (μg ml-1) were determined for each antifungal after incubation for 48 h in the presence of 0, 2, 6 and 10% OligoG CF-5/20 G-fragments. […] OligoG CF-5/20 G-fragments were provided by AlgiPharma AS, Norway.
(§5) Candida strains used were as follows: • C. albicans CCUG 39343 (strain from culture collection) • C. parapsillosis ATCC 22019T (strain from culture collection) • C. krusei 141/03 (candidosis) • C. krusei 249/03(2) (ulceration) • C. lusitaniae 994/01(2) (candidosis) • C. tropicalis 12 (vaginal) • C. tropicalis 75 (vaginal) • C. tropicalis 519468 (urinary) • C. tropicalis 544123 (urinary) • C. tropicalis 250/03 (candidosis) • C. tropicalis AG1 (oral) • C. tropicalis T2.2 (oral)

[3] = tested on: C. lusitaniae 994/01(2) (candidosis); test: Robotic MIC assay, Candida strains (Example 2); type: cell-based; details: 48 h, Mueller-Hinton broth
Protocol: as §1, §2, §3, §4, §5

[4] = tested on: C. tropicalis 250/03 (candidosis); test: Robotic MIC assay, Candida strains (Example 2); type: cell-based; details: C. tropicalis 250/03 Candiosis, 48 h, Mueller-Hinton broth
Protocol: as §1, §2, §3, §4, §5

[5] = tested on: C. tropicalis 544123 (urinary); test: Robotic MIC assay, Candida strains (Example 2); type: cell-based; details: 48 h, Mueller-Hinton broth
Protocol: as §1, §2, §3, §4, §5

[6] = tested on: C. tropicalis 75 (vaginal); test: Robotic MIC assay, Candida strains (Example 2); type: cell-based; details: 48 h, Mueller-Hinton broth
Protocol: as §1, §2, §3, §4, §5

[7] = tested on: C. albicans CCUG 39343; test: Robotic MIC assay, Candida strains (Example 2); type: cell-based; details: 48 h, Mueller-Hinton broth
Protocol: as §1, §2, §3, §4, §5

[8] = tested on: C. krusei 141/03 (candidosis); test: Robotic MIC assay, Candida strains (Example 2); type: cell-based; details: 48 h, Mueller-Hinton broth
Protocol: as §1, §2, §3, §4, §5

[9] = tested on: C. tropicalis T2.2 (oral); test: Robotic MIC assay, Candida strains (Example 2); type: cell-based; details: 48 h, Mueller-Hinton broth
Protocol: as §1, §2, §3, §4, §5

[10] = tested on: C. tropicalis AG1 (oral); test: Robotic MIC assay, Candida strains (Example 2); type: cell-based; details: 48 h, Mueller-Hinton broth
Protocol: as §1, §2, §3, §4, §5

[11] = tested on: C. tropicalis 12 (vaginal); test: Robotic MIC assay, Candida strains (Example 2); type: cell-based; details: 48 h, Mueller-Hinton broth
Protocol: as §1, §2, §3, §4, §5

[12] = tested on: C. krusei 249/03(2) (ulceration); test: Robotic MIC assay, Candida strains (Example 2); type: cell-based; details: 48 h, Mueller-Hinton broth
Protocol: as §1, §2, §3, §4, §5

[13] = tested on: C. parapsillosis ATCC 22019T; test: Robotic MIC assay, Candida strains (Example 2); type: cell-based, Candida parapsilosis; details: 48 h, Mueller-Hinton broth
Protocol: as §1, §2, §3, §4, §5

Clc1ccc(COC(Cn2ccnc2)c2ccc(Cl)cc2Cl)c(Cl)c1 (centres unmarked) [Miconazole, miconazole]
reduction in MIC values: effect of addition of OligoG CF-5/20 on MIC values [1]

C[C@@H]1[C@H](O)[C@@H](C)/C=C/C=C/CC/C=C/C=C/C=C/C=C/C(O[C@H]2O[C@H](C)[C@@H](O)[C@H](N)[C@@H]2O)CC2O[C@](O)(CC(O)C(O)CCC(O)CC(O)CC(O)CC(=O)O[C@H]1C)CC(O)C2C(=O)O (some centres unmarked) [Nystatin, nystatin]
16 µg/mL: Minimum Inhibitory Concentration (MIC) ([2]; 0% OligoG)
2 µg/mL: Minimum Inhibitory Concentration (MIC) ([2]; 10% OligoG) | Minimum Inhibitory Concentration (MIC) ([3]; 6% OligoG) | Minimum Inhibitory Concentration (MIC) ([4]; 6% OligoG) | Minimum Inhibitory Concentration (MIC) ([5]; 6% OligoG) | Minimum Inhibitory Concentration (MIC) ([5]; 10% OligoG) | Minimum Inhibitory Concentration (MIC) ([6]; 10% OligoG) | Minimum Inhibitory Concentration (MIC) ([7]; 10% OligoG) | Minimum Inhibitory Concentration (MIC) ([8]; 6% OligoG) | Minimum Inhibitory Concentration (MIC) ([8]; 10% OligoG) | Minimum Inhibitory Concentration (MIC) ([9]; 10% OligoG) | Minimum Inhibitory Concentration (MIC) ([10]; 10% OligoG) | Minimum Inhibitory Concentration (MIC) ([13]; 2% OligoG)
8 µg/mL: Minimum Inhibitory Concentration (MIC) ([2]; 2% OligoG) | Minimum Inhibitory Concentration (MIC) ([3]; 0% OligoG) | Minimum Inhibitory Concentration (MIC) ([3]; 2% OligoG) | Minimum Inhibitory Concentration (MIC) ([4]; 0% OligoG) | Minimum Inhibitory Concentration (MIC) ([5]; 0% OligoG) | Minimum Inhibitory Concentration (MIC) ([5]; 2% OligoG) | Minimum Inhibitory Concentration (MIC) ([6]; 0% OligoG) | Minimum Inhibitory Concentration (MIC) ([6]; 2% OligoG) | Minimum Inhibitory Concentration (MIC) ([6]; 6% OligoG) | Minimum Inhibitory Concentration (MIC) ([7]; 0% OligoG) | Minimum Inhibitory Concentration (MIC) ([7]; 2% OligoG) | Minimum Inhibitory Concentration (MIC) ([8]; 0% OligoG) | Minimum Inhibitory Concentration (MIC) ([9]; 0% OligoG) | Minimum Inhibitory Concentration (MIC) ([9]; 2% OligoG) | Minimum Inhibitory Concentration (MIC) ([10]; 0% OligoG) | Minimum Inhibitory Concentration (MIC) ([10]; 2% OligoG) | Minimum Inhibitory Concentration (MIC) ([11]; 0% OligoG) | Minimum Inhibitory Concentration (MIC) ([11]; 2% OligoG) | Minimum Inhibitory Concentration (MIC) ([12]; 0% OligoG) | Minimum Inhibitory Concentration (MIC) ([12]; 2% OligoG) | Minimum Inhibitory Concentration (MIC) ([12]; 6% OligoG)
reduction in MIC values: effect of addition of OligoG CF-5/20 on MIC values [1]
0.5 µg/mL: Minimum Inhibitory Concentration (MIC) ([13]; 10% OligoG)
4 µg/mL: Minimum Inhibitory Concentration (MIC) ([2]; 6% OligoG) | Minimum Inhibitory Concentration (MIC) ([4]; 2% OligoG) | Minimum Inhibitory Concentration (MIC) ([7]; 6% OligoG) | Minimum Inhibitory Concentration (MIC) ([8]; 2% OligoG) | Minimum Inhibitory Concentration (MIC) ([9]; 6% OligoG) | Minimum Inhibitory Concentration (MIC) ([10]; 6% OligoG) | Minimum Inhibitory Concentration (MIC) ([11]; 6% OligoG) | Minimum Inhibitory Concentration (MIC) ([11]; 10% OligoG) | Minimum Inhibitory Concentration (MIC) ([12]; 10% OligoG) | Minimum Inhibitory Concentration (MIC) ([13]; 0% OligoG)
1 µg/mL: Minimum Inhibitory Concentration (MIC) ([3]; 10% OligoG) | Minimum Inhibitory Concentration (MIC) ([4]; 10% OligoG) | Minimum Inhibitory Concentration (MIC) ([13]; 6% OligoG)
